According to patent US8168656B2, “Indoleacetic acid and indenacetic acid derivatives as therapeutic agents with reduced gastrointestinal toxicity” (Vanderbilt University, priority 2009, dated 2012):
Where two headings read alike, the source gives them in different places.

Key:
RKO cells = assay: Cell viability assay (WST-1); assay type: cell-based; conditions: Homo sapiens
Method: (§1) RKO and HCT-116 cells (human colorectal cancer cell lines) were cultured in microtiter plates (tissue culture grade, 96-well flat) in a final volume of 100 μl culture medium containing 5-8×10^4 cells and the final concentrations of chemicals (1-500 μM). Cells were incubated in a humidified atmosphere for 8-24 hours. To the cultures, 10 μl of cell proliferation reagent, WST-1 (Roche Applied Science, Indianapolis, Ind., United States of America) was added, and reincubated for 1-2 hours. The absorbance of the samples was determined using a microtiter plate reader at a wavelength of 405-450 nm against background control. Reference wavelength was 620 nm. The tetrazolium salt, WST-1 (4-[3-(4-Iodophenyl)-2-(4-nitrophenyl)-2H-5-tetrazolio]-1,3-benzene disulfonate) was metabolized to formazan by the “succinate-tetrazolium reductase” system, which exists in mitochondria and is active only in viable cells. Thus, the formation of formazan (dark yellow color) is proportional to the viable cell numbers.
(§2) The generated data points were used to calculate ED50 values by creating a sigmoidal dose-response curve using non-linear regression. ED50 valued were calculated using the statistical analysis program PRISM® (GraphPad Software, Inc., San Diego, Calif., United States of America).

HCT-116 cells = assay: Cell viability assay (WST-1); assay type: cell-based; conditions: Homo sapiens
Method: as §1, §2

[1] = second part of Table 9, read-out: ED50 RKO
[2] = concentration that reduces cell viability by 50%, read-out: ED50 HCT-116
[3] = concentration that reduces cell viability by 50%, read-out: ED50 RKO
[4] = second part of Table 9, read-out: ED50 HCT-116

Compound | EC50 (HCT-116 cells; [2]) | EC50 (HCT-116 cells; [4]) | EC50 (RKO cells; [1]) | EC50 (RKO cells; [3])
O=C(O)CC1=C/C(=C\c2ccc(C(=O)O)cc2)c2ccc(F)cc21 [Compound 36] | – | – | 6.4 ± 0.6 µM | –
O=C(CC1=C/C(=C\c2ccccc2)c2ccc(F)cc21)NCc1ccccc1 [Compound 34] | – | – | 5.4 ± 0.5 µM | –
C[S+]([O-])c1ccc(/C=C2\C=C(CC(=O)NCc3ccccc3)c3cc(F)ccc32)cc1 (centres unmarked) [Compound 32] | – | 6 ± 1 µM | 2.4 ± 0.2 µM | –
O=C(CC1=C/C(=C\C2CCCCC2)c2ccc(F)cc21)NCc1ccccc1 [Compound 38] | – | – | 6.7 ± 0.1 µM | –
[N-]=[N+]=NCc1ccc(/C=C2\C=C(CC(=O)NCc3ccc(NC(=O)CBr)cc3)c3cc(F)ccc32)cc1 [Compound 31] | > 3 µM | – | – | > 3 µM
CSc1ccc(/C=C2\C=C(CC(=O)NCc3cccc(C(F)(F)F)c3)c3cc(F)ccc32)cc1 [Compound 25] | > 3 µM | – | – | > 3 µM
CS(=O)(=O)c1ccc(/C=C2\C=C(CC(=O)NCc3ccccc3)c3cc(F)ccc32)cc1 [Compound 33] | – | 1.2 ± 0.3 µM | 0.8 ± 0.1 µM | –
CSc1ccc(/C=C2\C=C(CC(=O)NCc3ccccc3[N+](=O)[O-])c3cc(F)ccc32)cc1 [Compound 28] | > 3 µM | – | – | > 3 µM
CSc1ccc(/C=C2\C=C(CC(=O)NCc3ccc(N)cc3)c3cc(F)ccc32)cc1 [Compound 12] | > 3 µM | – | – | 2.3 ± 0.03 µM
CSc1ccc(/C=C2\C=C(CC(=O)NCc3cccc(Br)c3)c3cc(F)ccc32)cc1 [Compound 23] | > 3 µM | – | – | > 3 µM
CSc1ccc(/C=C2\C=C(CC(=O)NCc3ccncc3)c3cc(F)ccc32)cc1 [Compound 9] | > 3 µM | – | – | > 3 µM
COc1ccc(/C=C2\C=C(CC(=O)NCc3ccccc3)c3cc(F)ccc32)cc1 [Compound 35] | – | 1 ± 0.8 µM | 0.7 ± 0.1 µM | –
O=C(O)CC1=C/C(=C\c2ccc(Br)cc2)c2ccc(F)cc21 [Compound 37] | – | – | > 10 µM | –
CSc1ccc(/C=C2\C=C(CC(=O)Nc3ccc(F)cc3Cl)c3cc(F)ccc32)cc1 [Compound 10] | > 3 µM | – | – | > 3 µM
CSc1ccc(/C=C2\C=C(CC(=O)NCc3ccccc3N)c3cc(F)ccc32)cc1 [Compound 14] | > 3 µM | – | – | > 3 µM
CSc1ccc(/C=C2\C=C(CC(=O)NCc3ccccc3C)c3cc(F)ccc32)cc1 [Compound 19] | > 3 µM | – | – | > 3 µM
CSc1ccc(/C=C2\C=C(CC(=O)N[C@@H](C)c3ccccc3)c3cc(F)ccc32)cc1 [Compound 7] | > 3 µM | – | – | > 3 µM
CSc1ccc(/C=C2\C=C(CC(=O)NCCCc3ccccc3)c3cc(F)ccc32)cc1 [Compound 5] | > 3 µM | – | – | > 3 µM
COc1ccc(NC(=O)CC2=C/C(=C\c3ccc(SC)cc3)c3ccc(F)cc32)cc1 [Compound 11] | > 3 µM | – | – | > 3 µM
[N-]=[N+]=NCc1ccc(/C=C2\C=C(CC(=O)NCc3ccc(C4(c5ccccc5)CO4)cc3)c3cc(F)ccc32)cc1 (centres unmarked) [Compound 29] | > 3 µM | – | – | > 3 µM

Further lines, with some results ahead:

EC50 (HCT-116 cells; [2]) | EC50 (HCT-116 cells; [4]) | Compound | EC50 (RKO cells; [1]) | EC50 (RKO cells; [3])
> 3 µM | – | CSc1ccc(/C=C2\C=C(CC(=O)Nc3ccccc3)c3cc(F)ccc32)cc1 [Compound 2] | – | > 3 µM
> 3 µM | – | CSc1ccc(/C=C2\C=C(CC(=O)NCc3cccc(C)c3)c3cc(F)ccc32)cc1 [Compound 18] | – | > 3 µM
2.08 ± 0.08 µM | – | CSc1ccc(/C=C2\C=C(CC(=O)NCc3cccc(N)c3)c3cc(F)ccc32)cc1 [Compound 13] | – | 0.99 ± 0.03 µM
109 ± 10 µM | – | CSc1ccc(/C=C2/C(C)=C(CC(=O)O)c3cc(F)ccc32)cc1 [Sulindac sulfide, reference compound] | – | 98.2 ± 1.4 µM
> 3 µM | – | CSc1ccc(/C=C2\C=C(CC(=O)N(C)Cc3ccccc3)c3cc(F)ccc32)cc1 [Compound 6] | – | > 3 µM
1.3 ± 0.2 µM | – | CSc1ccc(/C=C2\C=C(CC(=O)NCc3ccc(Br)cc3)c3cc(F)ccc32)cc1 [Compound 22] | – | 0.67 ± 0.07 µM
1.2 ± 0.2 µM | – | CSc1ccc(/C=C2\C=C(CC(=O)NCc3ccc(O)cc3)c3cc(F)ccc32)cc1 [Compound 15] | – | 0.1 ± 0.04 µM
> 3 µM | – | CSc1ccc(/C=C2\C=C(CC(=O)NCc3cccc([N+](=O)[O-])c3)c3cc(F)ccc32)cc1 [Compound 27] | – | > 3 µM
3.9 ± 0.9 µM | – | CSc1ccc(/C=C2\C=C(CC(=O)NCc3ccccc3)c3cc(F)ccc32)cc1 [Compound 3] | – | 1.1 ± 0.7 µM
> 3 µM | – | CSc1ccc(/C=C2\C=C(CC(=O)NCc3ccc(C(F)(F)F)cc3)c3cc(F)ccc32)cc1 [Compound 24] | – | > 3 µM
0.8 ± 0.1 µM | – | CSc1ccc(/C=C2\C=C(CC(=O)NCc3ccc(Cl)cc3)c3cc(F)ccc32)cc1 [Compound 20] | – | 0.63 ± 0.07 µM
> 3 µM | – | CSc1ccc(/C=C2\C=C(CC(=O)N[C@H](C)c3ccccc3)c3cc(F)ccc32)cc1 [Compound 8] | – | > 3 µM
> 3 µM | – | CSc1ccc(/C=C2\C=C(CC(=O)NCCc3ccccc3)c3cc(F)ccc32)cc1 [Compound 4] | – | > 3 µM
> 3 µM | – | CSc1ccc(/C=C2\C=C(CC(=O)NCc3cccc(Cl)c3)c3cc(F)ccc32)cc1 [Compound 21] | – | > 3 µM
1.2 ± 0.1 µM | – | CSc1ccc(/C=C2\C=C(CC(=O)NCc3ccc(C)cc3)c3cc(F)ccc32)cc1 [Compound 17] | – | 0.73 ± 0.06 µM
449 ± 97.6 µM | – | COc1ccc2c(c1)c(CC(=O)O)c(C)n2C(=O)c1ccc(Cl)cc1 [Indomethacin, indomethacin, reference compound] | – | 162 ± 11 µM
1.47 ± 0.03 µM | – | CSc1ccc(/C=C2\C=C(CC(=O)NCc3cccc(O)c3)c3cc(F)ccc32)cc1 [Compound 16] | – | 0.83 ± 0.06 µM
0.18 ± 0.04 µM | – | CSc1ccc(/C=C2\C=C(CC(=O)NCc3ccc(C(=O)c4ccccc4)cc3)c3cc(F)ccc32)cc1 [Compound 30] | – | 0.04 ± 0.02 µM
2.1 ± 0.7 µM | – | CSc1ccc(/C=C2\C=C(CC(=O)NCc3ccc([N+](=O)[O-])cc3)c3cc(F)ccc32)cc1 [Compound 26] | – | 0.54 ± 0.07 µM
